Laboratory results from patent US20240166624A1, “PPARG INVERSE AGONISTS AND USES THEREOF” (Flare Therapeutics Inc., priority 2021, published 2024).

Assays:
[1] = test system: ANGPTL4, a PPARG target gene, in HT1197 (RXRA S427F mutation) cells; test: Bladder cancer pharmacodynamic assay, HT1197 cell assay (qPCR of ANGPTL4); type: cell-based; conditions: Homo sapiens, 24 hours, 100 nM compound, relative to DMSO control
Protocol: Bladder Cancer Pharmacodynamic Assay
5637 (PPARG amplified) and HT1197 (RXRA S427F mutation) cells were used for assessment of modulation of PPARG target genes using quantitative PCR. Cells were treated for 24 hours with PPARG inverse agonists prior to analysis of FABP4 (IDT, Cat: Hs.PT 58.20106818) and ANGPTL4 (IDT, Cat: Hs.PT 58.25480012) expression, with expression of the housekeeping gene TBP (IDT, Cat: Hs.PT 58v.39858774) used to normalize expression across samples. Quantitative PCR was performed using an ABI QuantStudio 7 Flex Reaction system. Data were analyzed and reported relative to DMSO control using the comparative Ct method (ΔΔCt).

[2] = molecular target: T1, PPARG/RXRA LBD heterodimer (Homo sapiens, UniProt P37231); test: PPARγ-MED1 blockade assay (TR-FRET, biotinylated MED1 LxxLL peptide); type: biochemical; conditions: WT PPARG LBD/WT RXRA LBD, 80 nM Rosiglitazone, 3 hours
T1 construct: His-TEV-Q203-Y477; Uniprot ID P37231-2; made in house; host or cells: E. coli
T1 sequence (P37231 203-477 isoform P37231-2): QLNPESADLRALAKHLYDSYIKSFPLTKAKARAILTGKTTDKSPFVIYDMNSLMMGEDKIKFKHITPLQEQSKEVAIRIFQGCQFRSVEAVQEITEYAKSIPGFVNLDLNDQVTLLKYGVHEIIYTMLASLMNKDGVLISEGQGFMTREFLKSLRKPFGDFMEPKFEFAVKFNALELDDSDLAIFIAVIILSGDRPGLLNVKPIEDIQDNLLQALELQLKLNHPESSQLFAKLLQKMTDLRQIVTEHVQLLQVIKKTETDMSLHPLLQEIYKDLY
T1 sequence (P19793 228-462 partner limits assumed): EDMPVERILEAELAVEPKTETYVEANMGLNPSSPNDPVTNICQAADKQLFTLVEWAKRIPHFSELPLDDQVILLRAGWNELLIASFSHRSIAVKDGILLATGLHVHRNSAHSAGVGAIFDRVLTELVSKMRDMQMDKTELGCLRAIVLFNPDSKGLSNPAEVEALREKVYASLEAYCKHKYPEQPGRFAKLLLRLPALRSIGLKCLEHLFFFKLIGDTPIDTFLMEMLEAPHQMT
Protocol: PPARγ-MED1 Blockade Assay:
Compound potency (IC50) and maximal extent of MED1 repulsion to PPARG were assessed a TR-FRET binding assay measuring association of a biotinylated MED1 LxxLL peptide (Biotin-[…]-amide) to PPARG/RXRA LBD heterodimer. Specifically, a 20 microliters of TR-FRET master mix consisting of 2 nM WT PPARG LBD (E. coli expressed, His-TEV-Q203-Y477; Uniprot ID P37231-2), 2 nM WT RXRA LBD (E. coli expressed, Flag-TEV-E228-T462; […]. Mixtures were incubated for 3 hours and read in an EnVision plate reader (Perkin Elmer) with Ex/Em 615/665. To determine the potency (IC50) and extent of MED1 repulsion, TR-FRET ratios were normalized to the average ratio of DMSO control wells (0%) and to the average minimum ratio for positive control compound (GW9662 (2-chloro-5-nitrobenzanilide); defined as 100%) in CDD Vault and analyzed using the Levenberg-Marquardt algorithm.

[3] = molecular target: T2, PPARG/RXRA LBD heterodimer (Homo sapiens, UniProt P37231); test: PPARγ-NCOR1 recruitment assay (TR-FRET, biotinylated NCOR1 ID2 peptide); type: biochemical; conditions: 80 nM Rosiglitazone, 3 hours, read-out: PPARG-NCOR recruitment assay EC50
T2 construct: His-TEV-Q203-Y477; Uniprot ID P37231-2; made in house; host or cells: E. coli
Protocol: PPARγ-NCOR1 Recruitment Assay:
Compound potency (EC50) and maximal extent of NCOR1 recruitment to PPARG were assessed a TR-FRET binding assay measuring association of a biotinylated NCOR1 ID2 peptide (Biotin-[…]-amide) to PPARG/RXRA LBD heterodimer. Specifically, a 20 microliters of TR-FRET master mix consisting of 2 nM WT PPARG LBD (E. coli expressed, His-TEV-Q203-Y477; Uniprot ID P37231-2), 2 nM WT RXRA LBD or mutant S427F RXRA LBD (E. coli expressed, Flag-TEV-E228-T462; […]. Mixtures were incubated for 3 hours and read in an EnVision plate reader (Perkin Elmer) with Ex/Em 615/665. To determine the potency (EC50) and extent of NCOR1 recruitment, TR-FRET ratios were normalized to the average ratio of DMSO control wells (0%) and to the average maximum ratio for positive control compound (T0070907 (2-chloro-5-nitro-N-4-pyridinyl-benzamide); defined as 100%) in CDD Vault and analyzed using the Levenberg-Marquardt algorithm.
T2 sequence (O75376 2251-2273 partner, one chain of several): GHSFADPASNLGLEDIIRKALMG

SMILES | EC50 [2] | EC50 [3] | inhibition at 0.1 µM [1]
N#Cc1ccc(Cl)c(-c2cc(=O)c3ccccc3[nH]2)c1 [Example 13, 4-chloro-3-(4-oxo-1,4-dihydroquinolin-2-yl)benzonitrile] | 1 to 10 µM | 1 to 10 µM | 17%
Cc1ccc(-c2c(F)cc3[nH]c(-c4cc(C#N)ccc4Cl)cc(=O)c3c2F)cn1 [Example 46, 4-chloro-3-(5,7-difluoro-6-(6-methylpyridin-3-yl)-4-oxo-1,4-dihydroquinolin-2-yl)benzonitrile] | 0.1 to 1 µM | 0.1 to 1 µM | 80%
Cc1cnc(-c2c(F)cc3[nH]c(-c4cc(C#N)ccc4Cl)cc(=O)c3c2F)cn1 [Example 60, 4-chloro-3-(5,7-difluoro-6-(5-methylpyrazin-2-yl)-4-oxo-1,4-dihydroquinolin-2-yl)benzonitrile] | 0.1 to 1 µM | 0.1 to 1 µM | 80%
N#Cc1ccc(Cl)c(-c2cc(=O)c3c(F)c(-c4ccc5c(c4)C(=O)NC5)c(F)cc3[nH]2)c1 [Example 59, 4-chloro-3-(5,7-difluoro-4-oxo-6-(3-oxoisoindolin-5-yl)-1,4-dihydroquinolin-2-yl)benzonitrile] | 0.01 to 0.1 µM | 0.01 to 0.1 µM | 42%
N#Cc1ccc(Cl)c(-c2cc(=O)c3c(F)c(-c4cccc(C(=O)O)c4)c(F)cc3[nH]2)c1 [Example 74, 3-(2-(2-chloro-5-cyanophenyl)-5,7-difluoro-4-oxo-1,4-dihydroquinolin-6-yl)benzoic acid] | 0.1 to 1 µM | 0.1 to 1 µM | 12%
N#Cc1ccc(Cl)c(-c2cc(=O)c3c(F)c(C4=CCNCC4)c(F)cc3[nH]2)c1 [Example 93, 4-chloro-3-(5,7-difluoro-4-oxo-6-(1,2,3,6-tetrahydropyridin-4-yl)-14-dihydroquinolin-2-yl)benzonitrile] | 1 to 10 µM | 1 to 10 µM | 48%
N#Cc1ccc(Cl)c(-c2cc(=O)c3c(Cl)cc(Cl)cc3[nH]2)c1 [Example 7, 4-chloro-3-(5,7-dichloro-4-oxo-1,4-dihydroquinolin-2-yl)benzonitrile] | 0.1 to 1 µM | 0.1 to 1 µM | 90%
Cc1cc(-c2c(F)cc3[nH]c(-c4cc(C#N)ccc4Cl)cc(=O)c3c2F)ccn1 [Example 40, 4-chloro-3-(5,7-difluoro-6-(2-methylpyridin-4-yl)-4-oxo-1,4-dihydroquinolin-2-yl)benzonitrile] | 0.1 to 1 µM | 0.1 to 1 µM | 72%
N#Cc1ccc(Cl)c(-c2cc(=O)c3c(F)c(N4CCN(CC(F)(F)F)CC4)c(F)cc3[nH]2)c1 [Example 20, 4-chloro-3-(5,7-difluoro-4-oxo-6-(4-(2,2,2-trifluoroethyl)piperazin-1-yl)-1,4-dihydroquinolin-2-yl)benzonitrile] | 0.1 to 1 µM | 0.1 to 1 µM | 91%
Cn1ncc(-c2c(F)cc3[nH]c(-c4cc(C#N)ccc4Cl)cc(=O)c3c2F)cc1=O [Example 63, 4-chloro-3-(5,7-difluoro-6-(1-methyl-6-oxo-1,6-dihydropyridazin-4-yl)-4-oxo-1,4-dihydroquinolin-2-yl)benzonitrile] | 0.1 to 1 µM | 0.1 to 1 µM | 24%
N#Cc1ccc(Cl)c(-c2cc(=O)c3c(F)c(-c4ccc(C(F)F)nc4)c(F)cc3[nH]2)c1 [Example 73, 4-chloro-3-(6-(6-(difluoromethyl)pyridin-3-yl)-5,7-difluoro-4-oxo-1,4-dihydroquinolin-2-yl)benzonitrile] | 0.01 to 0.1 µM | 0.01 to 0.1 µM | 85%

Continued, in another order:

EC50 [2] | EC50 [3] | SMILES | inhibition at 0.1 µM [1]
1 to 10 µM | 1 to 10 µM | CN(C)C(=O)C1CN(c2c(F)cc3[nH]c(-c4cc(C#N)ccc4Cl)cc(=O)c3c2F)C1 [Example 102, 1-(2-(2-chloro-5-cyanophenyl)-5,7-difluoro-4-oxo-1,4-dihydroquinolin-6-yl)-N,N-dimethylazetidine-3-carboxamide] | 81%
1 to 10 µM | 1 to 10 µM | N#Cc1ccc(Cl)c(-c2cc(=O)c3c(F)c(CCC(=O)O)c(F)cc3[nH]2)c1 [Example 77, 3-(2-(2-chloro-5-cyanophenyl)-5,7-difluoro-4-oxo-1,4-dihydroquinolin-6-yl)propanoic acid] | 44%
1 to 10 µM | 1 to 10 µM | N#Cc1ccc(Cl)c(-c2cc(=O)c3c(F)c(N4CCCC4=O)c(F)cc3[nH]2)c1 [Example 27, 4-chloro-3-(5,7-difluoro-4-oxo-6-(2-oxopyrrolidin-1-yl)-1,4-dihydroquinolin-2-yl)benzonitrile] | 47%
1 to 10 µM | 1 to 10 µM | COC1CN(c2c(F)cc3[nH]c(-c4cc(C#N)ccc4Cl)cc(=O)c3c2F)C1 [Example 103, 4-chloro-3-(5,7-difluoro-6-(3-methoxyazetidin-1-yl)-4-oxo-1,4-dihydroquinolin-2-yl)benzonitrile] | 82%
0.1 to 1 µM | 0.1 to 1 µM | CO[C@@H]1CCN(c2c(F)cc3[nH]c(-c4cc(C#N)ccc4Cl)cc(=O)c3c2F)C1 [Example 106, (R)-4-chloro-3-(5,7-difluoro-6-(3-methoxypyrrolidin-1-yl)-4-oxo-1,4-dihydroquinolin-2-yl)benzonitrile] | 75%
1 to 10 µM | 0.1 to 1 µM | N#Cc1ccc(Cl)c(-c2cc(=O)c3c(F)c(N4CC5(COC5)C4)c(F)cc3[nH]2)c1 [Example 98, 4-chloro-3-(5,7-difluoro-4-oxo-6-(2-oxa-6-azaspiro[3.3]heptan-6-yl)-14-dihydroquinolin-2-yl)benzonitrile] | 87%
0.1 to 1 µM | 0.1 to 1 µM | COc1c(F)cc2[nH]c(-c3cc(C#N)ccc3Cl)cc(=O)c2c1F [Example 34, 4-chloro-3-(5,7-difluoro-6-methoxy-4-oxo-1,4-dihydroquinolin-2-yl)benzonitrile] | 79%
1 to 10 µM | > 10 µM | CNC(=O)c1c(F)cc2[nH]c(-c3cc(C#N)ccc3Cl)cc(=O)c2c1F [Example 26, 2-(2-chloro-5-cyanophenyl)-5,7-difluoro-N-methyl-4-oxo-1,4-dihydroquinoline-6-carboxamide] | 21%
0.1 to 1 µM | 0.1 to 1 µM | Cn1cc(-c2c(F)cc3[nH]c(-c4cc(C#N)ccc4Cl)cc(=O)c3c2F)cn1 [Example 44, 4-chloro-3-(5,7-difluoro-6-(1-methyl-1H-pyrazol-4-yl)-4-oxo-1,4-dihydroquinolin-2-yl)benzonitrile] | 75%
> 10 µM | 1 to 10 µM | CN(C)C(=O)c1cc(-c2c(F)cc3[nH]c(-c4cc(C#N)ccc4Cl)cc(=O)c3c2F)ccn1 [Example 88, 4-(2-(2-chloro-5-cyanophenyl)-5,7-difluoro-4-oxo-1,4-dihydroquinolin-6-yl)-N,N-dimethylpicolinamide] | 41%
